Patent US8802593B2 (priority 2009, dated 2014)

Tests used:
Type in all cases: in vivo
wheat leaf rust = assay: Test Example 2: foliar spray on wheat, wheat leaf rust, control value; settings: wheat (SHIROGANEKOMUGI) leaf spray, Compound I 0, 8 days at 23° C.
Protocol: A plastic pot was filled with sandy soil and seeds of wheat (SHIROGANEKOMUGI) were sown on it, followed by cultivation in a greenhouse for 10 days. A wettable powder of the compound I was prepared by mixing 10 parts of the compound I, 35 parts of a mixture of white carbon and a polyoxyethylene alkyl ether sulfate ammonium salt (weight ratio of 1:1) and 55 parts of […], followed by grinding the mixture. A wettable powder of the compound (1b) was prepared by mixing 10 parts of the compound (1b), 35 parts of a mixture of white carbon and a polyoxyethylene alkyl ether sulfate ammonium salt (weight ratio of 1:1) and 55 parts of […], followed by grinding the mixture. […] After allowing to stand overnight at 23° C. under high humidity followed by cultivation in an artificial climate laboratory at 23° C. for 8 days, leaf area and lesion area of the wheat leaves were checked and the incidence of disease was calculated by Equation 3. […]
(§1) In order to calculate a control value, the same test was conducted in which the plants had been treated with none of the test compounds and the incidence of disease was determined.
(§2) The control value was calculated by the Equation 2 based on the incidence of disease thus determined. […]

[1] = test system: Fusarium solani f. sp. pisi; assay: Test Example 1: seed treatment of pea, pea root rot, control value; settings: Pisum sativum L seeds, Compound I 0, pea root rot after 16 days
Protocol: A DMSO solution of the compound I and a DMSO solution of the compound (1b) were respectively prepared. These solutions were mixed to prepare a DMSO solution containing predetermined concentrations of the compound I and the compound (1b). Ten (10) μL of the DMSO solution and 10 g of seeds of Pisum sativum L were mixed by shaking in a 50-ml conical tube and then allowed to stand overnight to prepare treated seeds. A plastic pot was filled with sandy soil and the treated seeds were sown on it and then covered with sandy soil which had been mixed with a bran culture of Fusarium solani f. sp. pisi. The sown seeds were watered and then cultured in a greenhouse at 20 to 24° C. […] After 16 days, the occurrence of pea root rot diseases was checked and the incidence of disease was calculated by Equation 1.
For comparison, a DMSO solution containing a predetermined concentration of the compound (1b) was prepared and subjected to the same test and then the incidence of disease was determined.
as §1, §2

Fusarium graminearum = settings: corn (Pioneer) seeds; QoI alone 10 g per 100 kg seeds; 15° C. for 15 days; seedling emergence
Fusarium avenaceum = assay: Test Example 4: seed treatment of corn, soil with Fusarium avenaceum, control value; settings: corn (Pioneer) seeds; azoxystrobin alone 10 g per 100 kg seeds; 15° C. for 15 days; seedling emergence
Protocol: A DMSO solution of the compound I and a DMSO solution of azoxystrobin were respectively prepared. These solutions were mixed to prepare a DMSO solution containing predetermined concentrations of the compound I and azoxystrobin. Twenty-five (25) μL of each of the DMSO solution and 10 g of seeds of corn (Pioneer) were mixed by shaking in a 50-ml conical tube and then allowed to stand overnight to prepare treated seeds. A plastic pot was filled with sandy soil and the treated seeds were sown on it and then covered with sandy soil which had been mixed with a bran culture of Fusarium avenaceum. The sown seeds were watered and then cultured in a greenhouse at 15° C. for 15 days. The number of emerged seedlings was checked and the incidence of disease was calculated by Equation 4.
For comparison, a DMSO solution containing a predetermined concentration of azoxystrobin was prepared and subjected to the same test and then the incidence of disease was determined.
as §1
The control value was calculated by the Equation 2 based on the incidence of disease thus determined.

Row | Structure (SMILES) | Control value (Fusarium graminearum) | further results
1 | CNC(=O)C(OC)c1ccccc1COc1cc(C)ccc1C (racemic) [Compound (1b)] | 83 | Control value (wheat leaf rust; Compound (1b) 10 ppm): 50; Control value (wheat leaf rust; Compound (1b) 20 ppm): 81; Control value ([1]; Compound (1b) 1 g/100 kg seeds): 64; Control value ([1]; Compound (1b) 5 g/100 kg seeds): 64
2 | CO/N=C(/C(=O)OC)c1ccccc1COc1ccccc1C [kresoxim-methyl] | 67 | –
3 | CO/C=C(/C(=O)OC)c1ccccc1Oc1cc(Oc2ccccc2C#N)ncn1 [azoxystrobin] | – | Control value (Fusarium avenaceum): 67
4 | COC(=O)N(OC)c1ccccc1COc1ccn(-c2ccc(Cl)cc2)n1 [pyraclostrobin] | 83 | –
5 | COC(=O)NCc1cc(/C(C)=N/OCc2cccc(C)n2)ccc1Cl [pyribencarb] | 83 | –
6 | CON=C(C(=O)OC)c1ccccc1CON=C(C)c1cccc(C(F)(F)F)c1 [trifloxystrobin] | 83 | –
